In general, pIC50 refers to −log10 of the IC50, conventionally taken in molar units.

pIC50: −log10 of the molar value. The source made the active and inactive calls. The rule behind the calls is not given here.

This is an account of results in ChEMBL document CHEMBL4414627, “Ealamines A-H, a Series of Naphthylisoquinolines with the Rare 7,8'-Coupling Site, from the Congolese Liana Ancistrocladus ealaensis, Targeting Pancreatic Cancer Cells” (J Nat Prod, 2019).

The test system of data set [1] is Plasmodium falciparum. In words: Antiprotozoal activity against chloroquine and pyrimethamine-resistant erythrocytic stage of Plasmodium falciparum K1 assessed as reduction in [3H]hypoxanthine incorporation preincubated for 48 hrs followed by [3H]hypoxanthine addition and measured after 24 hrs by liquid scintillation counting method. The data set is classed as functional, organism-based.

Data set [2] deals with Plasmodium falciparum. The experiment in a line: Antiprotozoal activity against chloroquine-sensitive Plasmodium falciparum NF54. In kind it is functional, organism-based.
Data set [3] deals with Trypanosoma cruzi. In words: Antiprotozoal activity against Trypanosoma cruzi Tulahuen C4 amastigotes infected in rat L6 cells incubated for 96 hrs by beta-galactosidase reporter gene assay. The data set is classed as functional, organism-based. (Reporter assays use an easily measured gene product as a stand-in for the process of interest.)
In data set [4] the test system is Trypanosoma brucei rhodesiense. The experiment in a line: Antiprotozoal activity against Trypanosoma brucei rhodesiense STIB900 trypomastigotes incubated for 72 hrs by Alamar blue staining-based fluorometric analysis. In kind it is functional, organism-based. Background: Alamar Blue is a resazurin reagent that responds to reducing activity.
For data set [5], the system named is Leishmania donovani. In words: Antiprotozoal activity against Leishmania donovani MHOM-ET-67/L82 axenic amastigotes incubated for 72 hrs by Alamar blue staining-based fluorometric analysis. The data set is classed as functional, organism-based.
The test system of data set [6] is L6. The experiment in a line: Cytotoxicity against rat L6 cells assessed as reduction in cell viability incubated for 72 hrs by Alamar blue staining-based fluorometric analysis.
The nature of data set [7]: Selectivity index, ratio of IC50 for rat L6 cells to IC50 for chloroquine and pyrimethamine-resistant erythrocytic stage of Plasmodium falciparum K1. In kind it is toxicity. As to conditions: for selectivity ratio: L6 cells, read-out: Ratio IC50.
The test system of data set [8] is PANC-1. The experiment in a line: Cytotoxicity against nutrient deprived human PANC1 cells assessed as induction of cell killing incubated for 24 hrs by WST-8 assay. The data set is classed as functional. On the technique in general: Formazan colour is commonly taken as a measure of viable cells.
For data set [9], the system named is PANC-1. The experiment in a line: Cytotoxicity against DMEM cultured human PANC1 cells assessed as reduction in cell viability at PC50 incubated for 24 hrs by WST-8 assay. In kind it is cell-based. As to conditions: panc-1, 24 h.
Data set [10] in a line: Selectivity index, ratio of IC50 for rat L6 cells to IC50 for chloroquine-sensitive Plasmodium falciparum NF54. The data set is classed as toxicity. Conditions: read-out: Ratio IC50.
For data set [11], the system named is PANC-1. The experiment in a line: Induction of cell morphological changes in nutrient deprived human PANC1 cells incubated for 24 hrs by acridine orange/ethidium bromide double staining-based fluorescence/phase contrast mode based EVOS FL digital microscopic analysis. In kind it is functional.
For data set [12], the system named is PANC-1. In words: Induction of cell morphological changes in human PANC1 cells assessed as loss of membrane integrity at 12.5 uM incubated for 24 hrs in nutrient deprived medium by acridine orange/ethidium bromide double staining-based fluorescence/phase contrast mode based EVOS FL digital microscopic analysis. The data set is classed as functional.
Data set [13] concerns PANC-1. The experiment in a line: Induction of cell death in nutrient deprived human PANC1 cells at 12.5 uM incubated for 24 hrs by acridine orange/ethidium bromide double staining-based fluorescence/phase contrast mode based EVOS FL digital microscopic analysis. The data set is classed as functional.
For data set [14], the system named is PANC-1. The experiment in a line: Induction of cell morphological changes in nutrient deprived human PANC1 cells assessed as cell swelling at 25 uM incubated for 24 hrs by acridine orange/ethidium bromide double staining-based fluorescence/phase contrast mode based EVOS FL digital microscopic analysis. The data set is classed as functional.
Data set [15] relates to PANC-1. The experiment in a line: Induction of cell morphological changes in nutrient deprived human PANC1 cells assessed as cell rounding at 25 uM incubated for 24 hrs by acridine orange/ethidium bromide double staining-based fluorescence/phase contrast mode based EVOS FL digital microscopic analysis. The data set is classed as functional.
The mark [16] stands for this setting: Trypanosoma cruzi, Tulahuen C4, L6, 96 h.
[17] abbreviates: Trypanosoma brucei, STIB900, 72 h.
Where [18] appears, read: Leishmania donovani, MHOM-ET-67/L82, 72 h.

On to `COc1c(-c2ccc(OC)c3c(OC)cc(C)cc23)c(O)cc2c1[C@@H](C)N[C@H](C)C2` [listing 1 of 2 here], for which the negative-log IC50 (pIC50) in data set [1] (Plasmodium falciparum, K1) is 5.85; in [2] (Plasmodium falciparum, NF54), 5.31; in data set [3] (setting [16]), 3.91; in data set [4] (setting [17]) it was 5.11; in data set [5], 4.27; in [6] (l6), 4.68. In data set [7], the “Ratio IC50” value is listed as 15. The PC50 in data set [8] is 30.6 µM.
As for `COc1c(-c2ccc(O)c3c(OC)cc(C)cc23)c(O)cc2c1[C@H](C)N[C@H](C)C2`, the Activity result is “Dose-dependent effect” in data set [8] and “Non-Toxic” in [9]. The PC50 in data set [8] was determined as 33.4 µM.
`COc1c2c(cc(O)c1-c1ccc(O)c3c(OC)cc(C)cc13)C[C@@H](C)N=C2C`: the figures for the Activity entry in data set [8] and in [9] were “Dose-dependent effect” and “Non-Toxic”, respectively. The PC50 in data set [8] was 37.8 µM.
On to `COc1c(-c2ccc(OC)c3c(OC)cc(C)cc23)c(O)cc2c1[C@@H](C)N[C@H](C)C2` [listing 2 of 2 here], for which the Activity entry in [8] was “Dose-dependent effect”.
For the molecule `COc1cc(O)c(-c2cc(-c3cc(-c4c(O)cc5c(c4OC)[C@H](C)N[C@H](C)C5)c4cc(C)cc(OC)c4c3O)c(O)c3c(OC)cc(C)cc23)c2c1[C@H](C)N[C@H](C)C2`, the pIC50 in data set [1] (Plasmodium falciparum, K1) is 8.20; in [6] (Rattus norvegicus, L6, 72 h), 5.22. The selectivity ratio in [7] amounted to 1000.
`COc1c(-c2ccc(OC)c3c(OC)cc(C)cc23)c(O)cc2c1[C@@H](C)N[C@H](C)C2` (single isomer, unassigned; atropisomer) [listing 1 of 2 here]: the pIC50 is 5.80 in data set [1]; 5.20 in [2]; 4.13 in [3]; 5.01 in [4]; 3.77 in [5]; 5.04 in data set [6] (l6). Further, the “Ratio IC50” value in data set [7] came to 5.6. Also, in data set [8], the PC50 amounted to 12.5 µM. For the same molecule, in data set [9], the Activity entry is reported as “Non-Toxic”.
As for `COc1cc(C[C@H]2C(=O)OC[C@@H]2Cc2ccc(OC)c(OC)c2)ccc1O` [ARCTIGENIN], in [8], the PC50 was found to be 0.8 µM. The Activity entry in data set [9] is “Non-Toxic”.
Regarding `COc1cc2c(c(O)c1-c1ccc(OC)c3c(OC)cc(C)cc13)[C@@H](C)N[C@H](C)C2`, the pIC50 was 5.09 in data set [1] (Plasmodium falciparum, K1); 4.65 in data set [2] (Plasmodium falciparum, NF54); 3.65 in data set [3] (setting [16]); 3.97 in data set [4] (setting [17]); less than 3.60 in [5] (setting [18]); less than 3.60 in data set [6] (Rattus norvegicus, L6, 72 h). Moreover, the selectivity ratio in data set [7] is greater than 30. The Activity result in data set [8] was “Dose-dependent effect”; in [9] it was “Non-Toxic”. Also, in [8], the PC50 amounted to 60.4 µM.
Take `COc1c(-c2ccc(OC)c3c(OC)cc(C)cc23)c(O)cc2c1[C@@H](C)N[C@H](C)C2` (single isomer, unassigned; atropisomer) [listing 2 of 2 here]: the Activity entry in data set [8] is “Dose-dependent effect”.
`O=C(Cn1ccnc1[N+](=O)[O-])NCc1ccccc1` [BENZNIDAZOLE] showed a negative-log IC50 (pIC50) in data set [3] (setting [16]) of 5.44.
On to `COc1c(-c2ccc(O)c3c(OC)cc(C)cc23)c(O)cc2c1[C@@H](C)N[C@H](C)C2`, for which the negative logarithm of the IC50 (pIC50) in [2] (Plasmodium falciparum, NF54) is 6.08; in [3] (setting [16]), 3.99; in [4] (setting [17]), 5.03; in data set [5] (setting [18]), less than 3.60; in data set [6] (Rattus norvegicus, L6, 72 h) it was 4.32. Further, in data set [10], the selectivity ratio was 56.8. Also, the Activity entry is “Dose-dependent effect” in data set [8]; “Dose-dependent effect” in data set [11]; 100% in data set [14]; 100% in data set [15]; “Non-Toxic” in data set [9]. Also, the PC50 in [8] is 9.9 µM. In addition, the result in [12] and in [13] was Active.
